Measurements reported in US20230399661A1, “SHUTTLE AGENT PEPTIDES OF MINIMAL LENGTH AND VARIANTS THEREOF ADAPTED FOR TRANSDUCTION OF CAS9-RNP AND OTHER NUCLEOPROTEIN CARGOS” (priority 2020, published 2023).

Legend:
Type in all cases: cell-based, Human
[1] = tested on: CFF-16HBEge cells; assay: Cas9-RNP delivery, B2M genome editing; conditions: for genome editing (Cas9-RNP): NGS, compared to non-treated cells; for genome editing with Cas9-RNP as cargo: B2M knockout, versus non-treated negative control
Protocol: HeLa cells were plated (10 000 cells/well) in a 96 well-plate the day prior to the experiment in DMEM containing 10% FBS. CFF-16HBEge cells were plated (10 000 cells/well) in a 96 well-plate the day prior to the experiment in Alpha-MEM containing 10% FBS.
(§1) For Cas9-RNP or ABE-Cas9-RNP transduction, a mix of Cas9-NLS or ABE-Cas9 recombinant protein (2.5 μM) complexed with a crRNA/tracrRNA (2 μM) targeting the beta-2 microglobulin (B2M) gene were co-incubated with 10-20 μM of synthetic peptide shuttle agent in a final volume of 50 μL completed with PBS. Cells were washed once with PBS and the shuttle/Cas9-RNP complex was added to the cells for and incubated for 60 to 90 seconds. Then 100 μL of DMEM (HeLa) or Alpha-MEM (CFF-16HBEge) containing 10% FBS was added to the mix. Cells were then immediately washed once with PBS and incubated in DMEM (HeLa) or Alpha-MEM (CFF-16HBEge) containing 10% FBS.
Genome editing events resulting in the absence of B2M protein (knockout) at the cell surface were determined by flow cytometry 6 days post-transduction. Cells were washed once with PBS and incubated with the anti-B2 microglobulin antibody (PE conjugated) (0.5 μL of anti-B2M-PE in […] 0.5% BSA/PBS) for 45 minutes at room temperature. Cells were washed twice with PBS and detached with 50 µL of Trypsin-EDTA for 10 minutes at 37° C. then inactivated by adding 100 μL of media containing 10% FBS. The percentage of knockout cells (cells without B2M antibody signal) was determined by flow cytometry.
A similar genome editing experiment as in Example 6 was performed in the Human Bronchial Epithelial cell line model of cystic fibrosis, CFF-16HBEge.
(§2) Further transduction experiments in CFF-16HBEge cells were performed to compare the ability of shuttle agents to deliver functional Cas9-RNP genome editing versus ABE-Cas9-RNP base editing complexes. Variants of the shuttle agent FSD10 (FIG. 8A) were tested in parallel, and genome editing/base editing results as evaluated by next-generation sequencing (NGS) are shown in FIGS. 8B and 8C for Cas9-RNP and ABE-Cas9-RNP, respectively.

[2] = tested on: CFF-16HBEge cells; assay: ABE-Cas9-RNP delivery, base editing evaluated by next-generation sequencing; conditions: NGS, compared to non-treated cells
Protocol: as §1, §2

[3] = tested on: HeLa cells; assay: GFP-NLS transduction in the presence or absence of Cas9-RNP complex, flow cytometry; parameters: GFP transduction efficiency: concentration or dose not given beside the values; conditions: for resistance/sensitivity of GFP transduction to inhibition by Cas9-RNP: presence vs absence of Cas9-RNP
Protocol: HeLa cells were plated (20 000 cells/well) in a 96 well-plate the day prior to the experiment in DMEM containing 10% FBS. A mix was prepared containing a synthetic peptide shuttle agent (10-30 μM), the GFP-NLS (10 μM) with or without a Cas9-NLS recombinant protein (2.5 μM) complexed with a crRNA/tracrRNA (2 μM) targeting the beta-2 microglobulin (B2M) gene and completed to 50 μL with PBS. Cells were washed once with PBS and the shuttle/GFP-NLS/Cas9-RNP mix was added to the cells and incubated for one minute. Then 100 μL DMEM containing 10% FBS was added to the mix. Cells were then immediately washed once with PBS and incubated in DMEM containing 10% FBS for two hours. Cells were the analyzed by flow cytometry.
To better understand the inhibitory effect of Cas9-RNP on shuttle agent transduction activity, HeLa cells were incubated with different peptides/shuttle agents and GFP cargo, in the presence or absence of Cas9-RNP, and delivery of GFP was assessed by flow cytometry, as described in Example 1. […] For some shuttle agents, the effect was particularly striking. For example, the GFP transduction efficiency for FSD268 decreased from 92% to 29%, the GFP transduction efficiency for FSD250 decreased from 83% to 13%, the GFP transduction efficiency for FSD10 decreased from 76% to 22%, and the GFP transduction efficiency for FSD395 decreased from 91% to 17%. […] Structure-activity relationships were explored further by repeating the above transduction experiments with shuttle agent variants sharing the same “core” amphipathic cationic alpha helical region as FSD10-15 (FIG. 4A), CM18 (FIG. 4B), and FSD356 (FIG. 4C).

Substance: FSD10-Cter: negative control peptide consisting of the C-terminal cationic portion of FSD10 alone (YARALRRQARTG; FSD10-Cter)
- genome editing (Cas9-RNP) [1]: did not exhibit any detectable genome editing
- base editing (ABE-Cas9-RNP) [2]: did not exhibit any detectable genome editing or base editing

Substance: FSD10: synthetic peptide shuttle agent; FSD10-15 core, glycine/serine-rich linker and second cationic domain (KWKLARAFARAIKKLGGSGGGSYARALRRQARTG; FSD10)
- GFP transduction efficiency ([3]; absence of Cas9-RNP): 76%
- GFP transduction efficiency ([3]; presence of Cas9-RNP): 22%
- resistance/sensitivity of GFP transduction to inhibition by Cas9-RNP [3]: more sensitive to inhibition by Cas9-RNP
- genome editing with Cas9-RNP as cargo [1]: failed to show any increase in genome editing

Substance: FSD322: synthetic peptide shuttle agent (KWKLAKAWSRALKLWGGSGGGSARAQARQA; FSD322)
- genome editing with Cas9-RNP as cargo [1]: failed to show any increase in genome editing

Substance: FSD356: shuttle agent whose last three C-terminal residues are QAG (KWKLLKLWSRLLKLWGGSGGGSQAG; FSD356)
- GFP transduction efficiency ([3]; presence of Cas9-RNP): 51%
- resistance/sensitivity of GFP transduction to inhibition by Cas9-RNP [3]: more resistant

Substance: FSD357: FSD356 with the last three C-terminal residues (QAG) replaced with three positively-charged arginine residues (RRR) (KWKLLKLWSRLLKLWGGSGGGSRRR; FSD357)
- GFP transduction efficiency ([3]; presence of Cas9-RNP): 4%

Substance: FSD374: core amphipathic cationic domain (as FSD174) flanked by short segments of non-cationic hydrophilic residues (GGSGGGSLLKIWSRLIKIWTQGRRLGGSGGGS; FSD374)
- resistance/sensitivity of GFP transduction to inhibition by Cas9-RNP [3]: virtually the same GFP transduction efficiency in the presence or absence of Cas9-RNP
- genome editing with Cas9-RNP as cargo [1]: significant genome editing

Substance: FSD395: synthetic peptide shuttle agent (KLKLLKLLLKLLKKLGGSGGGSQAKAQAKQAK; FSD395)
- GFP transduction efficiency ([3]; absence of Cas9-RNP): 91%
- GFP transduction efficiency ([3]; presence of Cas9-RNP): 17%
- genome editing with Cas9-RNP as cargo [1]: failed to show any increase in genome editing

Substance: FSD397: synthetic peptide shuttle agent (KLKLAKALAKALKKLGGSGGGSQAKAQAKQAK; FSD397)
- genome editing with Cas9-RNP as cargo [1]: failed to show any increase in genome editing

Substance: FSD422: FSD10-15 with flanking histidine residues in place of the glycine/serine-rich residues (HHHHHHKWKLARAFARAIKKLHHHHHH; FSD422)
- resistance/sensitivity of GFP transduction to inhibition by Cas9-RNP [3]: did not maintain the same level of Cas9-RNP resistance

Substance: FSD424: FSD10-15 with flanking glycine/serine-rich residues (KWKLARAFARAIKKLGGSGGGSGGSGGGS; FSD424)
- GFP transduction activity relative to FSD10-15 ([3]; FIG. 4A): improving GFP transduction activity over FSD10-15
- resistance/sensitivity of GFP transduction to inhibition by Cas9-RNP [3]: retained the peptide's resistance to Cas9-RNP

Substance: FSD432: shuttle agent: FSD10-15 core, C-terminal glycine/serine-rich linker fused to a second cationic domain (KWKLARAFARAIKKLGGSGGGSQAKAQAKQAK; FSD432)
- resistance/sensitivity of GFP transduction to inhibition by Cas9-RNP [3]: more sensitive to inhibition by Cas9-RNP

Substance: FSD440: CM18 with flanking glycine/serine-rich residues (GGSGGGSKWKLFKKIGAVLKVLTTGGGSGGGS; FSD440)
- GFP delivery score ([3]; FIGS. 3 and 4B, presence or absence of Cas9-RNP not stated): 3.6
- resistance/sensitivity of GFP transduction to inhibition by Cas9-RNP [3]: retained the peptide's resistance to Cas9-RNP

Substance: FSD446: shuttle agent with N-terminal segment identical to FSD356 and a C-terminal non-cationic hydrophilic segment (KWKLLKLWSRLLKLWGGSGGGSHTSDQTN; FSD446)
- GFP transduction efficiency ([3]; presence of Cas9-RNP): 34%

Substance: His-CM18-9Arg: CM18-based shuttle agent having high C-terminal positive charge density (HHHHHHKWKLFKKIGAVLKVLTTGRRRRRRRRR; His-CM18-9Arg)
- resistance/sensitivity of GFP transduction to inhibition by Cas9-RNP [3]: particularly marked sensitivities to inhibition by Cas9-RNP

Substance: His-CM18-TAT: CM18-based shuttle agent having high C-terminal positive charge density (HHHHHHKWKLFKKIGAVLKVLTTGYGRKKRRQRRR; His-CM18-TAT)
- resistance/sensitivity of GFP transduction to inhibition by Cas9-RNP [3]: particularly marked sensitivities to inhibition by Cas9-RNP

Substance: His-CM18-Transportan: CM18-based shuttle agent with lower C-terminal positive charge density (HHHHHHKWKLFKKIGAVLKVLTTGGWTLNSAGYLLKINLKALAALAKKIL; His-CM18-Transportan)
- resistance/sensitivity of GFP transduction to inhibition by Cas9-RNP [3]: substantially more resistant to inhibition by Cas9-RNP

Substance: Linker-(FSD10-Cter)-Linker: negative control peptide: C-terminal cationic portion of FSD10 flanked by glycine/serine-rich linkers (GGSGGGSYARALRRQARTGGGSGGGS; Linker-(FSD10-Cter)-Linker)
- genome editing (Cas9-RNP) [1]: did not exhibit any detectable genome editing
- base editing (ABE-Cas9-RNP) [2]: did not exhibit any detectable genome editing or base editing
